Experimental data taken from the supplement of paper PMC10627819.

Key:
[1] = system: S. aureus Newman; experiment: Bliss interaction score (quartile over a dose matrix) (fitness difference); higher = more antagonism (negative = synergy)
Procedure, shortened: (§1)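 Fitness here means normalised growth, inferred for single drugs from the combination data. Growth was OD595 at entry into stationary phase, divided by the plate's robust no-drug mean and capped at 1. The Bliss score is observed minus expected fitness, with the expectation being the product, and its quartiles span technical, biological and donor/recipient replicates.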

[2] = system: B. subtilis 168; experiment: as above
Procedure, shortened: as §1

[3] = system: S. pneumoniae D39V; experiment: as above
Procedure, shortened: as §1

[4] = system: S. aureus DSM 20231; experiment: as above
Procedure, shortened: as §1

[5] = system: B. subtilis 168; experiment: fitness (endpoint OD595 vs no drug) (fraction); higher = more growth
Procedure, shortened: (§2)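 Fitness expresses the optical density reached at the stationary-phase transition as a fraction of the robust mean of no-drug control wells. It is capped at 1. Measurements were OD595 every 30 min for 14 h at 37 °C after inoculation of 384-well plates at OD595 0.01 (30 µl, or 55 µl for S. pneumoniae), minus the first reading.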

[6] = system: S. pneumoniae D39V; experiment: as above
Procedure, shortened: as §2
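Throughout, for Bliss interaction score (quartile over a dose matrix): first quartile when negative (synergy) and third quartile when positive (antagonism).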
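Throughout, for fitness (endpoint OD595 vs no drug): OD595 on entry to stationary phase over no-drug wells; at most 1.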

C[C@H]1c2cccc(O)c2C(=O)C2=C(O)[C@]3(O)C(=O)C(C(N)=O)=C(O)[C@@H](N(C)C)[C@@H]3[C@@H](O)[C@@H]21 [Doxycycline] + Cc1ncc([N+](=O)[O-])n1CCO [Metronidazole]
Settings	Bliss interaction score
[1]	0.0262
[2]	0.0635
[3]	0.0539
[4]	0.0684

fitness
Settings	partner 0.625 µg/mL	partner 1.073 µg/mL	partner 1.25 µg/mL	partner 2.145 µg/mL	partner 2.5 µg/mL	partner 4.29 µg/mL	partner 5 µg/mL
[5], first compound 0.02 µg/mL	0.914	–	0.899	–	0.933	–	–
[5], first compound 0.04 µg/mL	0.774	–	0.835	–	0.844	–	–
[5], first compound 0.08 µg/mL	0.701	–	0.682	–	0.61	–	–
[6], first compound 0.0155 µg/mL	–	0.873	0.994	0.851	≥ 1	0.809	0.968
[6], first compound 0.031 µg/mL	–	0.889	–	0.853	–	0.835	–
[6], first compound 0.062 µg/mL	–	0.838	–	0.865	–	0.829	–

fitness, [6], one replicate
Settings	first compound 0.003875 µg/mL	first compound 0.00775 µg/mL	first compound 0.031 µg/mL	first compound 0.062 µg/mL
partner 1.25 µg/mL	≥ 1	≥ 1	0.938	0.775
partner 2.5 µg/mL	≥ 1	≥ 1	0.91	0.794
partner 5 µg/mL	≥ 1	≥ 1	0.892	0.757

C[C@H]1c2cccc(O)c2C(=O)C2=C(O)[C@]3(O)C(=O)C(C(N)=O)=C(O)[C@@H](N(C)C)[C@@H]3[C@@H](O)[C@@H]21 [Doxycycline] + Cc1onc(-c2ccccc2)c1C(=O)N[C@@H]1C(=O)N2[C@@H]1SC(C)(C)[C@@H]2C(=O)O [Oxacillin]
Settings	Bliss interaction score
[1]	-0.0136
[2]	0.0493
[3]	0.159
[4]	0.0402

Settings	fitness
[5], first compound 0.02 µg/mL, partner 0.002 µg/mL	0.885
[5], first compound 0.02 µg/mL, partner 0.004 µg/mL	0.933
[5], first compound 0.02 µg/mL, partner 0.008 µg/mL	0.882
[5], first compound 0.04 µg/mL, partner 0.002 µg/mL	0.762
[5], first compound 0.04 µg/mL, partner 0.004 µg/mL	0.771
[5], first compound 0.04 µg/mL, partner 0.008 µg/mL	0.716
[5], first compound 0.08 µg/mL, partner 0.002 µg/mL	0.419
[5], first compound 0.08 µg/mL, partner 0.004 µg/mL	0.422
[5], first compound 0.08 µg/mL, partner 0.008 µg/mL	0.372
[6], first compound 0.0155 µg/mL, partner 0.01 µg/mL	0.957
[6], first compound 0.0155 µg/mL, partner 0.02 µg/mL	0.921
[6], first compound 0.031 µg/mL, partner 0.01 µg/mL	0.917
[6], first compound 0.031 µg/mL, partner 0.02 µg/mL	0.885
[6], first compound 0.062 µg/mL, partner 0.01 µg/mL	0.859
[6], first compound 0.062 µg/mL, partner 0.02 µg/mL	0.801
[6], first compound 0.062 µg/mL, partner 0.04 µg/mL	0.71

fitness, one replicate
Settings	partner 0.0078 µg/mL	partner 0.01 µg/mL	partner 0.0155 µg/mL	partner 0.02 µg/mL	partner 0.031 µg/mL	partner 0.04 µg/mL	partner 0.075 µg/mL	partner 0.15 µg/mL	partner 0.3 µg/mL
[5], first compound 0.02 µg/mL	≥ 1	–	≥ 1	–	≥ 1	–	0.661	0.0438	0.0604
[5], first compound 0.04 µg/mL	0.858	–	0.843	–	0.843	–	0.576	0.025	0.0223
[5], first compound 0.08 µg/mL	0.721	–	0.742	–	0.716	–	0.102	0.0327	0.0213
[6], first compound 0.003875 µg/mL	–	≥ 1	–	0.978	–	0.357	–	–	–
[6], first compound 0.00775 µg/mL	–	≥ 1	–	0.959	–	0.571	–	–	–

C[C@H]1c2cccc(O)c2C(=O)C2=C(O)[C@]3(O)C(=O)C(C(N)=O)=C(O)[C@@H](N(C)C)[C@@H]3[C@@H](O)[C@@H]21 [Doxycycline] + O=C(O[C@@H]1Cc2c(O)cc(O)cc2O[C@@H]1c1cc(O)c(O)c(O)c1)c1cc(O)c(O)c(O)c1 [EGCG]
Settings	Bliss interaction score
[1]	0.088
[2]	0.147
[3]	-0.0707
[4]	0.0387

Settings	fitness
[5], first compound 0.02 µg/mL, partner 6.25 µg/mL	0.901
[5], first compound 0.04 µg/mL, partner 6.25 µg/mL	0.767
[5], first compound 0.08 µg/mL, partner 6.25 µg/mL	0.53
[5], first compound 0.08 µg/mL, partner 12.5 µg/mL	0.315
[5], first compound 0.08 µg/mL, partner 25 µg/mL	0.0902
[6], first compound 0.0155 µg/mL, partner 12.5 µg/mL	0.85
[6], first compound 0.0155 µg/mL, partner 25 µg/mL	0.864
[6], first compound 0.0155 µg/mL, partner 50 µg/mL	0.881
[6], first compound 0.031 µg/mL, partner 25 µg/mL	0.755

fitness, [6], one replicate
Settings	partner 12.5 µg/mL	partner 25 µg/mL	partner 50 µg/mL
first compound 0.003875 µg/mL	0.954	0.985	0.995
first compound 0.00775 µg/mL	0.919	0.966	0.964

C[C@@H]1O[C@@H]1P(=O)(O)O [Fosfomycin] + CCC(C)C1C(=O)NC(=C)C(=O)NC(C(=O)NC(CSCC(C(=O)N1)NC(=O)/C(=C/C)/NC(=O)C(C(C)CC)N)C(=O)NC2C(SCC(NC(=O)CNC(=O)C3CCCN3C2=O)C(=O)NC(CCCCN)C(=O)NC4C(SCC(NC(=O)CNC(=O)C(NC(=O)C(NC(=O)C(NC(=O)CNC4=O)C)CC(C)C)CCSC)C(=O)NC(CC(=O)N)C(=O)NC(CCSC)C(=O)NC(CCCCN)C(=O)NC5C(SCC6C(=O)NC(C(=O)NC(CSC(C(C(=O)N6)NC(=O)C(NC5=O)C)C)C(=O)NC(CO)C(=O)NC(C(C)CC)C(=O)NC(CC7=CN=CN7)C(=O)NC(C(C)C)C(=O)NC(=C)C(=O)NC(CCCCN)C(=O)O)CC8=CN=CN8)C)C)C)CC(C)C [Nisin]
main component drawn
Settings	Bliss interaction score
[1]	-0.0541
[2]	-0.0482
[3]	-0.0374
[4]	0.0654

fitness, main component drawn
Settings	partner 0.4275 µg/mL	partner 0.5 µg/mL	partner 0.855 µg/mL	partner 1 µg/mL	partner 1.6 µg/mL	partner 1.71 µg/mL	partner 2 µg/mL	partner 3.2 µg/mL	partner 6.4 µg/mL
[5], first compound 1.562 µg/mL	–	0.712	–	0.609	–	–	0.45	–	–
[5], first compound 3.124 µg/mL	–	0.59	–	0.542	–	–	0.368	–	–
[5], first compound 6.248 µg/mL	–	0.463	–	0.397	–	–	0.285	–	–
[6], first compound 1.25 µg/mL	≥ 1	–	≥ 1	–	0.0178	0.0788	–	0.0247	0.0308
[6], first compound 2.5 µg/mL	0.942	–	0.998	–	0.0062	0.0945	–	0.0256	0.0213
[6], first compound 5 µg/mL	0.852	–	0.889	–	0.0119	0.111	–	0.0102	0.0062

fitness, [5], one replicate, main component drawn
Settings	partner 1.25 µg/mL	partner 1.6 µg/mL	partner 2.5 µg/mL	partner 3.2 µg/mL	partner 4 µg/mL	partner 5 µg/mL	partner 6.4 µg/mL	partner 8 µg/mL	partner 16 µg/mL
first compound 1.562 µg/mL	0.687	0.577	0.527	0.0483	0.0272	0.0426	0.0336	0.0224	0.0164
first compound 3.124 µg/mL	0.613	0.469	0.303	0.024	0.0425	0.0431	0.0247	0.0352	0.0164
first compound 6.248 µg/mL	0.513	0.298	0.127	0.0136	0.0038	0.0232	0.0329	0.007	0.0049
